According to the CombiSolv-Exp solvation set (Vermeire and Green 2021):

Assay: solvent given as SMILES

C=CCCCCC
Conditions	solvation free energy, 298 K [kcal/mol]
in C1CCC2CCCCC2C1	-4.38
in C1CCC(C2CCCCC2)CC1	-4.33
in C=CCCCCCCCCCCCCCC	-4.16
in CC#N	-3.44
in CCC#N	-4.05
in CCCC#N	-3.78
in CCCCC(CC)COC(=O)CCCCC(=O)OCC(CC)CCCC	-4.03
in CCCCC(CC)COC(=O)c1ccccc1C(=O)OCC(CC)CCCC	-3.78
in CCCCCCC	-4.5
in CCCCCCCCC=CCCCCCCCC(=O)OCC(COC(=O)CCCCCCCC=CCCCCCCCC)OC(=O)CCCCCCCC=CCCCCCCCC	-4.07
in CCCCCO	-3.93
in CCCCOC(=O)c1ccccc1C(=O)OCCCC	-3.98
in CCCCOC(C)=O	-4.28
in CCN1CCCC1=O	-3.73
in CCOC(=O)c1ccccc1C(=O)OCC	-3.53
in CCOC(C)=O	-4.07
in CN1CCCC1=O	-3.46
in CN(C)C=O	-3.36
in CS(C)=O	-2.51
in N#CCCCCC#N	-2.8
in N#Cc1ccccc1	-3.92
in NC=O	-1.24
in NCCO	-1.63
in Nc1ccccc1	-3.24
in O	1.66
in O=C1CCCO1	-3
in O=CN1CCOCC1	-2.89
in O=Cc1ccco1	-3.2
in OCCO	-1.45
in OCCOCCO	-2.1
in OCCOCCOCCO	-2.27
in OCCOCCOCCOCCO	-2.4
in OCc1ccco1	-3.1
in c1ccc2c(c1)CCCC2	-4.37
in c1ccc(C2CCCCC2)cc1	-4.31

O=C(O)CCCCCCCCC(=O)O
Conditions	solvation free energy, 298 K [kcal/mol]
in CCC(C)O	-17
in CCCCCCO	-16.7
in CCCCCO	-16.9
in CCCCO	-17.1
in CCCO	-17.2

CNCCc1ccc(O)cc1
Conditions	solvation free energy, 298 K [kcal/mol]
in C=CCCCCCCC=C	-9.48
in O	-11.9

CC1CCC(C(C)C)C(O)C1 (centres undefined)
Conditions	solvation free energy, 298 K [kcal/mol]
in O	-3.2

Cc1ccc(C(C)C)c(O)c1
Conditions	solvation free energy, 298 K [kcal/mol]
in CCCO	-10.2
in CCO	-10.3
in CO	-10.3
in O	-5.81

CCN(CC)N=O
Conditions	solvation free energy, 298 K [kcal/mol]
in CC(C)CC(C)(C)C	-5.28
in O	-5.46

CCOP(=S)(OCC)SCSP(=S)(OCC)OCC
Conditions	solvation free energy, 298 K [kcal/mol]
in O	-6.1

O=C(Oc1ccccc1)c1ccccc1O
Conditions	solvation free energy, 298 K [kcal/mol]
in CC(C)CO	-12.2
in CC(C)O	-12.2
in CCC(C)O	-12.5
in CCCCO	-12.4
in CCCO	-12.4
in CCO	-12.4
in CO	-12.5

CCCC=O
Conditions	solvation free energy, 298 K [kcal/mol]
in C1CCOC1	-4.42
in C=CCCCC	-3.65
in C=CCCCCCCCCCCCCCC	-3.15
in CC(C)CC(C)(C)C	-3.45
in CC(C)CCCC(C)CCCC(C)CCCCC(C)CCCC(C)CCCC(C)C	-3.09
in CCCCCCCC	-3.23
in CCCCCCCCCCCCCCCC	-3.18
in CCCCCCCCO	-4.64
in CCCCCO	-3.7
in CCOC(C)=O	-4.33
in CN1CCCC1=O	-4.16
in CO	-4.34
in NC=O	-3.52
in O	-3.12
in O=CN1CCOCC1	-3.94
in [2H]O[2H]	-3.11

C=C1C2CCC3C2C(C)(C)CCCC13C (centres undefined)
Conditions	solvation free energy, 298 K [kcal/mol]
in O	0.8

CCCCc1ccccc1
Conditions	solvation free energy, 298 K [kcal/mol]
in C1CCOC1	-7.33
in CC#N	-6.1
in CC(C)O	-5.98
in CCC(C)=O	-6.73
in CCCCCCC	-6.58
in CCCCCCCCCCCCCCCC	-6.44
in CCO	-5.72
in CO	-5.81
in O	-0.37
in O=Cc1ccco1	-5.99
in OCCOCCO	-4.81

CCN(N=O)C(C)C
Conditions	solvation free energy, 298 K [kcal/mol]
in O	-5.46

Cc1cc(C)nc(NS(=O)(=O)c2ccc(N)cc2)n1
Conditions	solvation free energy, 298 K [kcal/mol]
in O	-20

CCCC(C)(O)CC (centres undefined)
Conditions	solvation free energy, 298 K [kcal/mol]
in CCCCCCCC	-5.4
in CCCCCCCCCC	-5.34

CC(C)[N+](=O)[O-]
Conditions	solvation free energy, 298 K [kcal/mol]
in CCCCCCC	-3.81
in ClC(Cl)(Cl)Cl	-4.57
in O	-3.13
in c1ccccc1	-5.07

O=C=O
Conditions	solvation free energy, 298 K [kcal/mol]
in Brc1ccccc1	-0.35
in C1CCC2CCCCC2C1	-0.22
in C1CCCCC1	-0.32
in C1CCOC1	-1.12
in C1COCCO1	-1.16
in C=CCCCC	-0.56
in C=CCCCCCC	-0.45
in C=CCCCCCCCC	-0.35
in CC1COC(=O)O1	-0.75
in CC(C)(C)O	-0.41
in CC(C)=O	-1.1
in CC(C)CO	-0.37
in CC(C)O	-0.42
in CCC(C)=O	-0.98
in CCC(C)O	-0.33
in CCCCCC	-0.48
in CCCCCCC	-0.41
in CCCCCCCC	-0.35
in CCCCCCCCCC	-0.27
in CCCCCCCCCCCCCCCC	-0.12
in CCCCCCCCCCO	-0.13
in CCCCCCCCO	-0.22
in CCCCO	-0.4
in CCCCOCCO	-0.26
in CCCCOCCOCCO	-0.23
in CCCCOCCOCCOCCO	-0.48
in CCCO	-0.48
in CCO	-0.57
in CCOCCOCCO	-0.51
in CCOCCOCCOCC	-0.69
in CCc1ccccc1	-0.21
in CN1CCCC1=O	-0.82
in CN(C)C=O	-0.95
in CN(C)P(=O)(N(C)C)N(C)C	-0.9
in CO	-0.85
in COC(=O)CC#N	-0.67
in COC(C)=O	-1.13
in COCCO	-0.65
in COCCOC	-0.86
in COCCOCCO	-0.7
in COCCOCCOC	-0.84
in COCCOCCOCCO	-0.5
in COCCOCCOCCOC	-0.7
in COCCOCCOCCOCCOC	-0.77
in CS(C)=O	-0.69
in Cc1ccc(C)cc1	-0.45
in Cc1cccc(C)c1	-0.45
in Cc1ccccc1	-0.48
in Cc1ccccc1C	-0.43
in ClC(Cl)(Cl)Cl	-0.61
in ClC(Cl)Cl	-0.61
in ClCCCl	-0.78
in ClCCl	-0.68
in Clc1ccccc1	-0.5
in Nc1ccccc1	-0.44
in O	0.11
in O=C1CCCC1	-0.89
in O=C1CCCCC1	-0.79
in O=CN1CCOCC1	-0.71
in OCCCOCCCO	-0.25
in OCCO	-0.17
in OCCOCCO	-0.28
in OCc1ccccc1	-0.36
in c1ccccc1	-0.58

CCCCCCCCOC(=O)c1ccccc1C(=O)OCCCCCCCC
Conditions	solvation free energy, 298 K [kcal/mol]
in O	-6.68

CCCCCCCC(=O)c1c(C)[nH]n(-c2ccccc2)c1=O
Conditions	solvation free energy, 298 K [kcal/mol]
in O	-8.85
